# Assay results published in patent US10836763B2, “5 to 7 membered heterocyclic amides as JAK inhibitors” (priority 2018, dated 2020).
# Assay: Pharmacokinetics in plasma and lung in mouse
# Format: in vivo
# Conditions: BALB/c mice, single oral aspiration, 0.2 mg/mL, 50 μL; for Kp / AUC(0-t): mouse, other: oral aspiration into the trachea, 10 µg/mouse; for Kp: lung / plasma, read-out: Lung Tissue:Plasma AUC ratio; for AUC(0-t): plasma, read-out: Plasma AUC(0-24)
# Description: Assay 6: Pharmacokinetics in Plasma and Lung in Mouse
# Plasma and lung concentrations of test compounds and ratios thereof were determined in the following manner. BALB/c mice from Charles River Laboratories were used in the assay. Test compounds were individually formulated in 20% propylene glycol in pH 4 citrate buffer at a concentration of 0.2 mg/mL and 50 μL of the dosing solution was introduced into the trachea of a mouse by oral aspiration. At various time points (typically 0.167, 2, 6, 24 hr) post dosing, blood samples were removed via cardiac puncture and intact lungs were excised from the mice.
Compound,Lung Tissue AUC(0-24) [µg·h/g],Kp,AUC(0-t) [ng·h/mL]
"CCCN1Cc2[nH]c(-c3n[nH]c4cc(-c5ccc(O)cc5CC)ccc34)nc2C[C@H]1C(=O)N1CCN(CCO)CC1 [Compound 1, (S)-(2-(6-(2-ethyl-4-hydroxyphenyl)-1H-indazol-3-yl)-5-propyl-4,5,6,7-tetrahydro-3H-imidazo[4,5-c]pyridin-6-yl)(4-(2-hydroxyethyl)piperazin-1-yl)methanone]",64.6,111,581
"CCc1cc(O)ccc1-c1ccc2c(-c3nc4c([nH]3)CN(C)[C@H](C(=O)N3CCN(CCO)C[C@H]3C)C4)n[nH]c2c1 [Compound 5, ((S)-2-(6-(2-ethyl-4-hydroxyphenyl)-1H-indazol-3-yl)-5-methyl-4,5,6,7-tetrahydro-3H-imidazo[4,5-c]pyridin-6-yl)((R)-4-(2-hydroxyethyl)-2-methylpiperazin-1-yl)methanone]",29.9,49.9,599
